Among the data in US20260015357A1, “MODULATORS OF NLRP3 INFLAMMASOME AND RELATED PRODUCTS AND METHODS” (Neumora Therapeutics, Inc., priority 2022, published 2026) are IC50 values, retold here.

Where only a bound is given, the exact number is not on record here.

In assay [1] the target is T1, NLRP3 inflammasome (Homo sapiens, UniProt Q96P20).
T1 construct: host or cells: THP1 human acute monocytic leukemia cells, PMA-differentiated, LPS-primed
Briefly: NLRP3 inflammasome activation in LPS-primed, nigericin-activated THP1 macrophages, IL-1β AlphaLISA. In kind it is cell-based. The conditions noted are these: PMA-differentiated, 1 hr compound, Nigericin 6.7 uM 3 hrs, IL-1β in supernatant. The procedure:
(§1) NLRP3 Inflammasome Activation and Cell Viability Assessment in THP1 Macrophages
(§2) THP1—Human acute monocytic leukemia cells were cultured (ATCC, cat #TIB-202) in Gibco RPMI-1640 medium (ThermoFisher cat #72400054) supplemented with 10% Heat Inactivated FBS at density between 3-8×10^5 viable cells/mi. The cells were then subcultured when the cell concentration reached 8×10^5 cells/mL (every 2-3 days).
(§3) The parameter wells were filled with 50 ul PBS and incubated at 37° C., 5% CO2 for 48 hrs.
(§4) After 48 hrs incubation, the PMA containing media was removed, and changed for 40 ul/well of fresh DMEM, 10% FBS, 1× GlutaMax and incubated at 37° C., 5% CO2 for 24 hrs.
(§5) The following day the cells were primed with LPS (E. coli) (Sigma, cat #L3129) […] in DMEM, 10% FBS, 1× GlutaMax for 3 hrs at 37° C., 5% CO2.
(§6) Following the LPS priming step, the cells were treated with compounds at 10 uM top final concentration, 1:4 dilution, 8 times: (10 uM, 2.5 uM, 0.625 uM, 0.156 uM, 0.039 uM, 0.0097 uM, 0.0024 uM, 0.0006 uM). DMSO was used as a vehicle control, and MCC950 (InvivoGen, cat #inh-mcc) was used at 1 uM as a positive control, and incubated for 1 hrs at 37° C., 5% CO2.
(§7) Following the 1 hr compound incubation, the NLRP3 inflammasome activation step was conducted by treating cells with Nigericin (InvivoGen, cat #tlrl-nig) at 6.7 uM final concentration for 3 hrs at 37° C., 5% CO2.
(§8) Thereafter, 30 ul samples of cells' supernatants were collected for cytokine analysis which was conducted on Hu IL-1β AlphaLISA (Perkin Elmer, cat #AL220C) and Hu IL-6 AlphaLISA (Perkin Elmer, cat #AL220C). The cells' viability was assessed by performing CellTiter-Glo Luminescent Assay (Promega, cat #G7572) according to the manufacturer's protocol.

Assay [2] has as its system IL-6. In words: IL-6 in supernatants of LPS-primed, nigericin-treated THP1 macrophages, Hu IL-6 AlphaLISA. In kind it is cell-based. The conditions noted are these: Homo sapiens, THP-1, PMA-differentiated, 1 hr compound, Nigericin 6.7 uM 3 hrs, IL-6 in supernatant. The procedure:
as §1, §2, §3, §4, §5, §6, §7, §8

T1 sequence (Q96P20 whole entry): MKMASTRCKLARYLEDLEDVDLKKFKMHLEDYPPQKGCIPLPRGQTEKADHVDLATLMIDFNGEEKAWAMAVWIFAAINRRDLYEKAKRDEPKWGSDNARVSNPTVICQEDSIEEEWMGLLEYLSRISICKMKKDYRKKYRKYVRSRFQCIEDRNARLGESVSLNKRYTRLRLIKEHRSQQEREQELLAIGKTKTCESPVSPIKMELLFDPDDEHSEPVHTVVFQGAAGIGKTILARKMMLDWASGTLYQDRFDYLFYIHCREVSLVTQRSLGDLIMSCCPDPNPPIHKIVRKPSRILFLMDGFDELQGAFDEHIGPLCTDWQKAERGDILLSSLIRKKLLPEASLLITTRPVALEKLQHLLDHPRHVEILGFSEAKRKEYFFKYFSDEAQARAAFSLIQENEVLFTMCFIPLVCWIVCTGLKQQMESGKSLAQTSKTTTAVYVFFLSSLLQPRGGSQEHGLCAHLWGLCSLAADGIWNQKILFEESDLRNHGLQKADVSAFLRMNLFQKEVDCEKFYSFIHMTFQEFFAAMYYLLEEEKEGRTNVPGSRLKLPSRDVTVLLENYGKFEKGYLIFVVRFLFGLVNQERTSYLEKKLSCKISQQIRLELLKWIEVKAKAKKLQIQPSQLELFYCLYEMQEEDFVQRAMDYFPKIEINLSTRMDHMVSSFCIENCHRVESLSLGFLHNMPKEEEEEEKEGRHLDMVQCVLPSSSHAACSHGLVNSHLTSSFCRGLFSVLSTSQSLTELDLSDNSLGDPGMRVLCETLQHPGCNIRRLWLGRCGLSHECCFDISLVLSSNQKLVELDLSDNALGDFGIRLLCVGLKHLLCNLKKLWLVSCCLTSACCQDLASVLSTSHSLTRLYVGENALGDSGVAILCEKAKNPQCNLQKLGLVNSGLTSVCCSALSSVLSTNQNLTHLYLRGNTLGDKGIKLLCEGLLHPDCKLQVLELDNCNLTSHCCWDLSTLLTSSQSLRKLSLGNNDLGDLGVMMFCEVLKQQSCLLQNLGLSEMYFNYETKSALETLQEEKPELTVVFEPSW

With `CN1CCC[C@@H](Nc2nnc(-c3ccccc3)c3cc[nH]c23)C1` [Compound 15], the half-maximal inhibitory concentration (IC50) in assay [1] was 500 to 1000 nM. For the compound `CN1CCC[C@@H](Nc2nnc(-c3ccccc3O)c3[nH]ccc23)C1` [Compound 8], the IC50 in assay [1] is 100 to 500 nM; in assay [2], not below 10000 nM. For the compound `Cc1cc(C#N)ccc1-c1nnc(N[C@@H]2CCCN(C)C2)c2c1ccn2C` [Compound 125], in assay [1], the IC50 was 10 to 100 nM. Turning to `CN1CCC[C@@H](N(C)c2nnc(-c3ccc(C#N)cc3)c3ccn(C)c23)C1` [Compound 84], the IC50 in assay [1] and in assay [2] was not below 10000 nM in each case.

Regarding `Cc1cc(C(F)(F)F)cnc1-c1nnc(N[C@@H]2CCCN(C)C2)c2c1cnn2C` [Compound 137], the IC50 in assay [1] was 10 to 100 nM; in assay [2], not below 10000 nM. `CN1CCC[C@@H](Nc2nnc(-c3ccccc3)c3[nH]ccc23)C1` [Compound 70] yielded an IC50 in assay [1] not below 10000 nM. On to `CN1CCC[C@@H](Nc2nnc(-c3ccc(Cl)cc3)c3cc[nH]c23)C1` [Compound 10], for which the 50% inhibitory concentration (IC50) lay in the range of 10 to 100 nM in assay [1] and 1000 to 5000 nM in assay [2]. Taken in the same sequence, the figures for `CN1CCC[C@@H](Oc2nnc(-c3ccc(C(F)(F)F)cc3)c3ccsc23)C1` [Compound 87] were 100 to 500 nM and not below 10000 nM. The matching figures for `Cn1ncc2c(-c3ccc(C(F)(F)F)cc3)nnc(N[C@@H]3CCCN(CC4CC4)C3)c21` [Compound 108]: 10 to 100 nM and not below 10000 nM. Taken in the same sequence, the figures for `CN1CCC[C@@H](Nc2nnc(-c3ccc(C(F)(F)F)cc3)c3occc23)C1` [Compound 54] were 100 to 500 nM and 1000 to 5000 nM. Regarding `CN1CCC[C@@H](N(C)c2nnc(-c3ccc(C(F)(F)F)cc3)c3ccoc23)C1` [Compound 93], the figures for the IC50 in assay [1] and in assay [2] were 1000 to 10000 nM and not below 10000 nM, respectively. The matching figures for `CN1CCC[C@@H](N(C)c2nnc(-c3ccc(Cl)cc3)c3ccn(C)c23)C1` [Compound 82]: 1000 to 10000 nM and 1000 to 5000 nM. Taken in the same sequence, the figures for `CN1CCC[C@@H](Nc2nnc(-c3ccc(F)cc3O)c3[nH]ccc23)C1` [Compound 7] were 100 to 500 nM and not below 10000 nM.

With `CN1CCCC(Cc2nnc(-c3ccc(C(F)(F)F)cc3)c3cc[nH]c23)C1` (stereo not shown) [Compound 83], the values for the 50% inhibitory concentration (IC50) in assay [1] and in assay [2] were 10 to 100 nM and 1000 to 5000 nM, respectively. Consider `CN1CCC[C@@H](Nc2nnc(-c3ccccc3O)c3ccn(C)c23)C1` (single isomer, unassigned) [Compound 17], for which the IC50 in assay [1] is 10 to 100 nM; in assay [2], not below 10000 nM. Taken in the same sequence, the figures for `CN1CCC[C@@H](Nc2nnc(-c3ncc(C(F)(F)F)cc3O)c3cnn(C)c23)C1` [Compound 166] were 10 to 100 nM and not below 10000 nM. With `CN1CCC[C@@H](Nc2nnc(-c3ncc(C#N)cc3Cl)c3cnn(C)c23)C1` [Compound 140], the half-inhibitory concentration (IC50) in assay [1] was 1000 to 10000 nM.

Regarding `CN1CCC[C@@H](Nc2nnc(-c3ccc(C(F)(F)F)cc3)c3c2OCC3)C1` [Compound 58], the IC50 in assay [1] was 100 to 500 nM; in assay [2], not below 10000 nM.

For the compound `CN1CCC[C@@H](Nc2nnc(-c3ccc(C(F)(F)F)cc3)c3[nH]ccc23)C1` (single isomer, unassigned) [Compound 2], the IC50 in assay [1] was 100 to 500 nM; in assay [2], not below 10000 nM. The matching figures for `Cn1ccc2c(-c3ccc(C#N)cc3O)nnc(N[C@@H]3CCCN(CCN)C3)c21` [Compound 164]: 100 to 500 nM and not below 10000 nM. The matching figures for `CN1CCC[C@@H](Nc2nnc(-c3ccc(C(F)(F)F)cc3)c3ccoc23)C1` [Compound 53]: 10 to 100 nM and not below 10000 nM. The matching figures for `CN1CCC[C@@H](Nc2nnc(-c3ccccc3C(F)F)c3[nH]ccc23)C1` [Compound 13]: not below 10000 nM and not below 10000 nM.

Take `Cn1ccc2c(-c3ccc(C#N)cc3O)nnc(N[C@@H]3CCCNC3)c21` [Compound 158]: the values for the IC50 in assay [1] and in assay [2] were 10 to 100 nM and 5000 to 10000 nM, respectively. The matching figures for `CN1CCC[C@@H](Nc2nnc(-c3ccccc3C(F)F)c3cc[nH]c23)C1` [Compound 12]: 100 to 500 nM and not below 10000 nM. The matching figures for `CN1CCC[C@@H](Nc2nnc(-c3ccc(C(F)(F)F)cc3)c3sncc23)C1` [Compound 64]: 10 to 100 nM and 5000 to 10000 nM. Consider `Cn1ccc2c(-c3ccc(C#N)cc3O)nnc(N[C@@H]3CCCN(c4cccnc4)C3)c21` [Compound 163], for which the IC50 in assay [1] and in assay [2] was not below 10000 nM each time. Regarding `Cn1ccc2c(-c3ccc(C#N)cc3O)nnc(N[C@@H]3CCCN(C4CC4)C3)c21` [Compound 146], the IC50 in assay [1] is 10 to 100 nM; in assay [2], not below 10000 nM. The matching figures for `CN1CCC[C@@H](Nc2nnc(-c3ccc(C(F)(F)F)cn3)c3cnn(C)c23)C1` [Compound 136]: 100 to 500 nM and 1000 to 5000 nM. The matching figures for `CN1CCC[C@@H](Nc2nnc(-c3ccc(F)cc3)c3[nH]ccc23)C1` [Compound 9]: not below 10000 nM and not below 10000 nM. Taken in the same sequence, the figures for `CN1CCC[C@@H](Nc2nnc(-c3ccc(C#N)cc3O)c3c(Cl)cn(C)c23)C1` [Compound 157] were 100 to 500 nM and not below 10000 nM. Consider `CN(C)CCN1CCC[C@@H](Nc2nnc(-c3ccc(C#N)cc3O)c3ccn(C)c23)C1` [Compound 156], for which the concentration for half-maximal inhibition (IC50) in assay [1] is 10 to 100 nM; in assay [2] it was not below 10000 nM. The matching figures for `COCCN1CCC[C@@H](Nc2nnc(-c3ccc(C#N)cc3O)c3cnsc23)C1` [Compound 154]: 10 to 100 nM and not below 10000 nM. For `CN1CCC[C@@H](Nc2nnc(-c3ncc(C#N)cc3O)c3cnn(C)c23)C1` [Compound 111], the IC50 in assay [1] was 100 to 500 nM; in assay [2], not below 10000 nM.

Take `CN1CCC[C@@H](N(C)c2nnc(-c3ccc(C(F)(F)F)cc3)c3c2ccn3C)C1` [Compound 71]: the IC50 in assay [1] is 1000 to 10000 nM; in assay [2] it was not below 10000 nM. Taken in the same sequence, the figures for `CN1CCC[C@@H](N(C)c2nnc(-c3ccc(F)cc3O)c3ccoc23)C1` [Compound 107] were 100 to 500 nM and not below 10000 nM.

In assay [1], `CN1CCC[C@@H](Nc2nnc(-c3ccc(C(F)(F)F)cc3C(F)F)c3ccn(C)c23)C1` [Compound 122] had a 50% inhibitory concentration (IC50) of less than 10 nM.

`CN1CCC[C@@H](Nc2nnc(-c3ccc(Cl)cc3)c3ccn(C)c23)C1` [Compound 80]: the IC50 is less than 10 nM in assay [1] and not below 10000 nM in assay [2]. The matching figures for `Cn1ccc2c(-c3ccc(C#N)cc3O)nnc(N[C@@H]3CCCN(CC(C)(C)O)C3)c21` [Compound 152]: 10 to 100 nM and not below 10000 nM. Taken in the same sequence, the figures for `C[N+]1(C)CCC[C@@H](Nc2nnc(-c3ccc(C(F)(F)F)cc3)c3nc[nH]c23)C1` [Compound 92] were not below 10000 nM and not below 10000 nM. Taken in the same sequence, the figures for `Cc1cc(C(F)(F)F)cc(O)c1-c1nnc(N[C@@H]2CCCN(C)C2)c2c1ccn2C` [Compound 143] were less than 10 nM and not above 1000 nM. Regarding `CN1CCC[C@@H](Nc2nnc(-c3ncc(C#N)cc3O)c3cc(Cl)n(C)c23)C1` [Compound 165], the IC50 was less than 10 nM in assay [1] and not below 10000 nM in assay [2]. For `Cc1cc(C#N)cc(C)c1-c1nnc(N[C@@H]2CCCN(C)C2)c2c1ccn2C` [Compound 126], the 50% inhibitory concentration (IC50) in assay [1] and in assay [2] was not below 10000 nM in each case.

As to `CN1CCC[C@@H](Nc2nnc(-c3ccc(C#N)cc3Cl)c3ccn(C)c23)C1` [Compound 124], the results for the 50% inhibitory concentration (IC50) in assay [1] and in assay [2] were 100 to 500 nM and not below 10000 nM, respectively. Taken in the same sequence, the figures for `Cc1cc(C#N)cnc1-c1nnc(N[C@@H]2CCCN(C)C2)c2c1ccn2C` [Compound 132] were 1000 to 10000 nM and not below 10000 nM. Taken in the same sequence, the figures for `CN1CCC[C@@H](Nc2nnc(-c3ccc(C(F)(F)F)cc3)c3c2CCC3)C1` [Compound 65] were less than 10 nM and 5000 to 10000 nM. Take `CN1CCC[C@@H](Nc2nnc(-c3ncc(C#N)cc3O)c3ccn(C)c23)C1` [Compound 135]: in assay [1], the IC50 is not below 10000 nM. As for `CN1CCC[C@@H](Nc2nnc(-c3ccc(C#N)cc3C(F)F)c3ccn(C)c23)C1` [Compound 120], the half-inhibitory concentration (IC50) in assay [1] lay within 100 to 500 nM. On the same count and under the same terms, in the case of `CN1CCC[C@@H](Nc2nnc(-c3ncc(C#N)cc3O)c3cnn(C)c23)C1` [Compound 114] it was 10 to 100 nM; in that of `N#Cc1ccc(-c2nnc(N[C@@H]3CCCN(CCF)C3)c3sncc23)c(O)c1` [Compound 150], 10 to 100 nM; in that of `CN1CCC[C@@H](Nc2nnc(-c3ccccc3O)c3cc[nH]c23)C1` [Compound 14], less than 10 nM. In turn, `CN1CCC[C@@H](Nc2nnc(-c3ccc(C(F)(F)F)cc3)c3c2ccn3C)C1` [Compound 69] gave an IC50 in assay [1] of 10 to 100 nM.
